# PubChem BioAssay (NCI)
#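 Cultured in 96-well plates, cells were exposed to test compound for 48 hours across five concentrations. The concentration for 50% growth inhibition is given as GI50. Definition used: TGI = concentration required for complete inhibition of growth.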
# Assays:
# Assay in all cases: NCI-60 cell line screen, 48 h
# UO-31 renal = system: UO-31 renal
# MOLT-4 leukemia = system: MOLT-4 leukemia
# SW-620 colon = system: SW-620 colon
# SK-MEL-2 melanoma = system: SK-MEL-2 melanoma
# U251 CNS = system: U251 CNS
# LOX IMVI melanoma = system: LOX IMVI melanoma
# NCI-H460 lung = system: NCI-H460 lung
# HOP-92 NSCLC = system: HOP-92 NSCLC
# SN12C renal = system: SN12C renal
# NCI/ADR-RES ovarian = system: NCI/ADR-RES ovarian
# SNB-75 CNS = system: SNB-75 CNS
# SF-268 CNS = system: SF-268 CNS
# 786-0 renal = system: 786-0 renal
# NCI-H522 lung = system: NCI-H522 lung
# NCI-H226 lung = system: NCI-H226 lung
# RPMI-8226 leukemia = system: RPMI-8226 leukemia
# UACC-257 melanoma = system: UACC-257 melanoma
# SK-MEL-5 melanoma = system: SK-MEL-5 melanoma
# IGROV1 ovarian = system: IGROV1 ovarian
# HCC-2998 colon = system: HCC-2998 colon
# PC-3 prostate = system: PC-3 prostate
# NCI-H23 lung = system: NCI-H23 lung
# SF-295 CNS = system: SF-295 CNS
# OVCAR-3 ovarian = system: OVCAR-3 ovarian
# HCT-116 colon = system: HCT-116 colon
# A498 renal = system: A498 renal
# HOP-62 NSCLC = system: HOP-62 NSCLC
# HT29 colon = system: HT29 colon
# A549 NSCLC = system: A549 NSCLC
# K-562 leukemia = system: K-562 leukemia
# ACHN renal = system: ACHN renal
# M14 melanoma = system: M14 melanoma
# OVCAR-4 ovarian = system: OVCAR-4 ovarian
# COLO 205 colon = system: COLO 205 colon
# EKVX NSCLC = system: EKVX NSCLC
# T-47D breast = system: T-47D breast
# SF-539 CNS = system: SF-539 CNS
# MDA-MB-435 = system: MDA-MB-435
# MCF7 breast = system: MCF7 breast
# MDA-MB-231 breast = system: MDA-MB-231 breast
# SK-MEL-28 melanoma = system: SK-MEL-28 melanoma
# CAKI-1 renal = system: CAKI-1 renal
# SR leukemia = system: SR leukemia
# UACC-62 melanoma = system: UACC-62 melanoma
# SK-OV-3 ovarian = system: SK-OV-3 ovarian
# OVCAR-8 ovarian = system: OVCAR-8 ovarian
# CCRF-CEM leukemia = system: CCRF-CEM leukemia
# RXF 393 renal = system: RXF 393 renal
# HS 578T breast = system: HS 578T breast
# DU-145 prostate = system: DU-145 prostate
# BT-549 breast = system: BT-549 breast
# HCT-15 colon = system: HCT-15 colon
# OVCAR-5 ovarian = system: OVCAR-5 ovarian
# KM12 colon = system: KM12 colon
# TK-10 renal = system: TK-10 renal
# MALME-3M melanoma = system: MALME-3M melanoma
# HL-60(TB) leukemia = system: HL-60(TB) leukemia
# SNB-19 CNS = system: SNB-19 CNS
compound,measurement,setting,value
C#Cc1nc(C2=C(C)C(O)/C(=N/O)C2)cs1 (stereo unspecified),GI50,UO-31 renal,1.61 µM
same,TGI,UO-31 renal,2.98 µM
same,GI50,MOLT-4 leukemia,15.1 µM
same,TGI,MOLT-4 leukemia,40.9 µM
same,GI50,SW-620 colon,79.3 µM
same,TGI,SW-620 colon,> 100 µM
same,GI50,SK-MEL-2 melanoma,> 100 µM
same,TGI,SK-MEL-2 melanoma,> 100 µM
same,GI50,U251 CNS,79.5 µM
same,TGI,U251 CNS,> 100 µM
same,GI50,LOX IMVI melanoma,1.52 µM
same,TGI,LOX IMVI melanoma,2.95 µM
same,GI50,NCI-H460 lung,> 100 µM
same,TGI,NCI-H460 lung,> 100 µM
same,GI50,HOP-92 NSCLC,18.1 µM
same,TGI,HOP-92 NSCLC,34.1 µM
same,GI50,SN12C renal,35 µM
same,TGI,SN12C renal,> 100 µM
same,GI50,NCI/ADR-RES ovarian,81.5 µM
same,TGI,NCI/ADR-RES ovarian,> 100 µM
same,GI50,SNB-75 CNS,> 100 µM
same,TGI,SNB-75 CNS,> 100 µM
same,GI50,SF-268 CNS,40.7 µM
same,TGI,SF-268 CNS,> 100 µM
same,GI50,786-0 renal,3.84 µM
same,TGI,786-0 renal,14 µM
same,GI50,NCI-H522 lung,14.1 µM
same,TGI,NCI-H522 lung,29.1 µM
same,GI50,NCI-H226 lung,> 100 µM
same,TGI,NCI-H226 lung,> 100 µM
same,GI50,RPMI-8226 leukemia,5.19 µM
same,TGI,RPMI-8226 leukemia,21.8 µM
same,GI50,UACC-257 melanoma,57.4 µM
same,TGI,UACC-257 melanoma,> 100 µM
same,GI50,SK-MEL-5 melanoma,54.6 µM
same,TGI,SK-MEL-5 melanoma,> 100 µM
same,GI50,IGROV1 ovarian,2.97 µM
same,TGI,IGROV1 ovarian,12.1 µM
same,GI50,HCC-2998 colon,> 100 µM
same,TGI,HCC-2998 colon,> 100 µM
same,GI50,PC-3 prostate,39.1 µM
same,TGI,PC-3 prostate,> 100 µM
same,GI50,NCI-H23 lung,7.4 µM
same,TGI,NCI-H23 lung,> 100 µM
same,GI50,SF-295 CNS,12.5 µM
same,TGI,SF-295 CNS,28.5 µM
same,GI50,OVCAR-3 ovarian,> 100 µM
same,TGI,OVCAR-3 ovarian,> 100 µM
same,GI50,HCT-116 colon,42.2 µM
same,TGI,HCT-116 colon,> 100 µM
same,GI50,A498 renal,24.1 µM
same,TGI,A498 renal,50.3 µM
same,GI50,HOP-62 NSCLC,94.9 µM
same,TGI,HOP-62 NSCLC,> 100 µM
same,GI50,HT29 colon,25.7 µM
same,TGI,HT29 colon,68.1 µM
same,GI50,A549 NSCLC,35.3 µM
same,TGI,A549 NSCLC,> 100 µM
same,GI50,K-562 leukemia,36.7 µM
same,TGI,K-562 leukemia,> 100 µM
same,GI50,ACHN renal,3.61 µM
same,TGI,ACHN renal,> 100 µM
same,GI50,M14 melanoma,> 100 µM
same,TGI,M14 melanoma,> 100 µM
same,GI50,OVCAR-4 ovarian,57.2 µM
same,TGI,OVCAR-4 ovarian,> 100 µM
same,GI50,COLO 205 colon,> 100 µM
same,TGI,COLO 205 colon,> 100 µM
same,GI50,EKVX NSCLC,> 100 µM
same,TGI,EKVX NSCLC,> 100 µM
same,GI50,T-47D breast,66.8 µM
same,TGI,T-47D breast,> 100 µM
same,GI50,SF-539 CNS,11.5 µM
same,TGI,SF-539 CNS,23.6 µM
same,GI50,MDA-MB-435,> 100 µM
same,TGI,MDA-MB-435,> 100 µM
same,GI50,MCF7 breast,39 µM
same,TGI,MCF7 breast,> 100 µM
same,GI50,MDA-MB-231 breast,60.1 µM
same,TGI,MDA-MB-231 breast,> 100 µM
same,GI50,SK-MEL-28 melanoma,87.8 µM
same,TGI,SK-MEL-28 melanoma,> 100 µM
same,GI50,CAKI-1 renal,48.3 µM
same,TGI,CAKI-1 renal,> 100 µM
same,GI50,SR leukemia,1.91 µM
same,TGI,SR leukemia,5.31 µM
same,GI50,UACC-62 melanoma,> 100 µM
same,TGI,UACC-62 melanoma,> 100 µM
same,GI50,SK-OV-3 ovarian,18.8 µM
same,TGI,SK-OV-3 ovarian,39.3 µM
same,GI50,OVCAR-8 ovarian,55.5 µM
same,TGI,OVCAR-8 ovarian,> 100 µM
same,GI50,CCRF-CEM leukemia,2.21 µM
same,TGI,CCRF-CEM leukemia,5.3 µM
same,GI50,RXF 393 renal,19.4 µM
same,TGI,RXF 393 renal,62.6 µM
same,GI50,HS 578T breast,> 100 µM
same,TGI,HS 578T breast,> 100 µM
same,GI50,DU-145 prostate,49.2 µM
same,TGI,DU-145 prostate,> 100 µM
same,GI50,BT-549 breast,19.8 µM
same,TGI,BT-549 breast,75.5 µM
same,GI50,HCT-15 colon,49 µM
same,TGI,HCT-15 colon,> 100 µM
same,GI50,OVCAR-5 ovarian,63.6 µM
same,TGI,OVCAR-5 ovarian,> 100 µM
same,GI50,KM12 colon,> 100 µM
same,TGI,KM12 colon,> 100 µM
same,GI50,TK-10 renal,> 100 µM
same,TGI,TK-10 renal,> 100 µM
same,GI50,MALME-3M melanoma,18.4 µM
same,TGI,MALME-3M melanoma,49.6 µM
same,GI50,HL-60(TB) leukemia,11.9 µM
same,TGI,HL-60(TB) leukemia,29 µM
same,GI50,SNB-19 CNS,> 100 µM
same,TGI,SNB-19 CNS,> 100 µM
